# Data as given in patent US8686224B2, “Plant defense signal peptides” (priority 2005, dated 2014).
# Molecular target: T1, AtPep1 receptor (At1g73080, AtPEPR1) (Arabidopsis thaliana, UniProt Q9SSL9)
# T1 sequence (Q9SSL9 29-1123): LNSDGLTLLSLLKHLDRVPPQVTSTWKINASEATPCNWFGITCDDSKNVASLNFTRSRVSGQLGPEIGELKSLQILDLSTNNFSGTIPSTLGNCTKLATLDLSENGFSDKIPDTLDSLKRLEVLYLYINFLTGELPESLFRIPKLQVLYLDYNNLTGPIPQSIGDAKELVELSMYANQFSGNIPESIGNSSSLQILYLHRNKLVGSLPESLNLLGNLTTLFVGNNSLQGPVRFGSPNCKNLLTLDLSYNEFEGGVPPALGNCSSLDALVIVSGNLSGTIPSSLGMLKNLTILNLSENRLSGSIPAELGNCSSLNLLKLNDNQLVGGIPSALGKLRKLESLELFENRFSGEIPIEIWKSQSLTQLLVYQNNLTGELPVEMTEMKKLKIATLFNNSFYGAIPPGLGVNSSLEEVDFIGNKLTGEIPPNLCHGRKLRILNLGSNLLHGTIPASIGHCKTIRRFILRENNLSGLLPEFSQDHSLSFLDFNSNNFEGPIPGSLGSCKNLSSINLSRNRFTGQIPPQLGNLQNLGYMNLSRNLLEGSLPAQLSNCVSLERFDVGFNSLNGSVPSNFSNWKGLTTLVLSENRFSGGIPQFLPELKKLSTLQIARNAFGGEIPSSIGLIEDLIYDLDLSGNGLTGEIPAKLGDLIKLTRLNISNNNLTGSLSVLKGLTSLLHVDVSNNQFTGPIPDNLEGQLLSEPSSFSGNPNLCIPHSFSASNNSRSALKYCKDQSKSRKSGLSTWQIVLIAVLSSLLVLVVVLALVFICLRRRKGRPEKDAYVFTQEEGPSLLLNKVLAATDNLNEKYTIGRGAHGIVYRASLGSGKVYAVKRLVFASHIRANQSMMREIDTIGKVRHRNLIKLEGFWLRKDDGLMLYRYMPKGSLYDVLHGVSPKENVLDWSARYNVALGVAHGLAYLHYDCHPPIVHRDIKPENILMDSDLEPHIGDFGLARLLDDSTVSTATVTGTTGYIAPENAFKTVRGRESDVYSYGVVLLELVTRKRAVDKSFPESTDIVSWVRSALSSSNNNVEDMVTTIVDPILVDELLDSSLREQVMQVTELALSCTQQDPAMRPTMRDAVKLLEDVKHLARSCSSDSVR
# Assay: Binding assay of 125I1-Tyr-AtPep1 with Arabidopsis suspension cultured cells
# Procedure: Binding assays. […] The filtered cells were washed three times with 5 mL of cold MS medium containing 3% sucrose, suspended in 1 mL MS medium containing 3% sucrose in a glass test tube, and analyzed for total radioactivity in a gamma-ray counter (Isodata 2020; Isodata Inc., Palatine, Ill.).
substance,measurement,value
H-ATKVKAKQRGKEKVSSGRPGQHN-OH [AtPep1],Kd,0.25 nM
